Source: PubChem BioAssay AID256 (DTP/NCI, 2004)
“And” between values parts separate entries of the source, which are not always exact repeats. Equal values may be shown once. Toxic doses and inconclusive results are not listed. Rule for the calls: active = survival T/C of 150% or more; inactive = T/C below 125% in these data.

System: CD2F1 mice, L1210 leukemia ip, survival T/C
Experiment: NCI In Vivo Anticancer Drug Screen. Data for tumor model L1210 Leukemia (intraperitoneal) in CD2F1 (CDF1) mice
Conditions: endpoint: mean survival time, higher = longer survival
In short: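 Mice carrying a transplanted tumor received test compound or vehicle alone. The value is the measurement in the treated group divided by that in the vehicle-treated control group.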

[1] = dose: 25.0 mg/kg/injection, schedule: Q04DX002 (ip), vehicle: saline with Tween-80
[2] = dose: 50.0 mg/kg/injection, schedule: Q04DX002 (ip), vehicle: saline with Tween-80
[3] = dose: 25.0 mg/kg/injection, schedule: Q04DX003 (ip), vehicle: saline with Tween-80
[4] = dose: 50.0 mg/kg/injection, schedule: Q04DX003 (ip), vehicle: saline with Tween-80
[5] = dose: 100.0 mg/kg/injection, schedule: Q04DX003 (ip), vehicle: saline with Tween-80
[6] = dose: 100.0 mg/kg/injection, schedule: Q01DX001 (ip), vehicle: saline with Tween-80
[7] = dose: 100.0 mg/kg/injection, schedule: Q01DX009 (ip), vehicle: saline with Tween-80
[8] = dose: 100.0 mg/kg/injection, schedule: Q04DX002 (ip), vehicle: saline with Tween-80
[9] = dose: 200.0 mg/kg/injection, schedule: Q01DX001 (ip), vehicle: saline with Tween-80
[10] = dose: 200.0 mg/kg/injection, schedule: Q01DX009 (ip), vehicle: saline with Tween-80
[11] = dose: 200.0 mg/kg/injection, schedule: Q04DX002 (ip), vehicle: saline with Tween-80
[12] = dose: 200.0 mg/kg/injection, schedule: Q04DX003 (ip), vehicle: saline with Tween-80
[13] = dose: 400.0 mg/kg/injection, schedule: Q01DX001 (ip), vehicle: saline with Tween-80
[14] = dose: 400.0 mg/kg/injection, schedule: Q01DX009 (ip), vehicle: saline with Tween-80
[15] = dose: 400.0 mg/kg/injection, schedule: Q04DX002 (ip), vehicle: saline with Tween-80
[16] = dose: 400.0 mg/kg/injection, schedule: Q04DX003 (ip), vehicle: saline with Tween-80
[17] = dose: 100.0 mg/kg/injection, schedule: Q01DX001 (ip), vehicle: saline
[18] = dose: 200.0 mg/kg/injection, schedule: Q01DX001 (ip), vehicle: saline
[19] = dose: 100.0 mg/kg/injection, schedule: Q01DX009 (ip), vehicle: saline
[20] = dose: 200.0 mg/kg/injection, schedule: Q01DX009 (ip), vehicle: saline
[21] = dose: 400.0 mg/kg/injection, schedule: Q01DX009 (ip), vehicle: saline

Measured: T/C

NC(N)=N/N=C\c1ccc2ccccc2c1
inactive: [1] 97 % of control | [2] 101 % of control

Cc1cc([N+](=O)[O-])ccc1S(=O)(=O)F
inactive: [3] 95 % of control | [4] 98 % of control | [5] 98 % of control

CCOC(=O)c1ccc(NC(=S)NC(=O)c2cccc(Br)c2)cc1
inactive: [6] 101 % of control and 112 % of control | [7] 92 % of control and 98 % of control | [8] 93 % of control | [5] 96 % of control | [9] 97 % of control and 101 % of control | [10] 94 % of control and 95 % of control | [11] 95 % of control | [12] 98 % of control | [13] 101 % of control | [14] 97 % of control and 106 % of control | [15] 96 % of control | [16] 93 % of control

CC(=O)Cc1ccc(C)cc1
inactive: [5] 97 % of control | [12] 93 % of control | [16] 104 % of control

O=NN(CCCl)C(=O)Nc1c[nH]c2ccccc12
inactive: dose: 177.0 mg/kg/injection, schedule: Q01DX001 (ip), vehicle: saline with Tween-80 96 % of control | dose: 177.0 mg/kg/injection, schedule: Q01DX009 (ip), vehicle: saline with Tween-80 98 % of control | dose: 265.0 mg/kg/injection, schedule: Q01DX001 (ip), vehicle: saline with Tween-80 97 % of control | dose: 265.0 mg/kg/injection, schedule: Q01DX009 (ip), vehicle: saline with Tween-80 101 % of control | [13] 92 % of control | [14] 97 % of control | dose: 600.0 mg/kg/injection, schedule: Q01DX001 (ip), vehicle: saline with Tween-80 91 % of control

CCOC(=O)Nc1cccc(Cl)c1F
inactive: [7] 91 % of control | [10] 97 % of control | [14] 96 % of control

CC/C1=C/N(C=O)CCc2c([nH]c3ccccc23)C(C(=O)OC)(c2cc3c(cc2OC)N(C)C2C(O)(C(=O)OC)C(OC(C)=O)C4(CC)C=CCN5CCC32C54)CC(=O)C1 (stereo not drawn)
inactive: dose: 50.0 mg/kg/injection, schedule: Q01DX001 (ip), vehicle: saline 107 % of control | [17] 102 % of control | [18] 96 % of control

CCOC(=O)CC(C)(C)NCc1ccccc1
inactive: dose: 25.0 mg/kg/injection, schedule: Q01DX009 (ip), vehicle: Klucel (hydroxypropylcellulose) (HPC) 91 % of control | dose: 50.0 mg/kg/injection, schedule: Q01DX009 (ip), vehicle: Klucel (hydroxypropylcellulose) (HPC) 97 % of control | dose: 100.0 mg/kg/injection, schedule: Q01DX009 (ip), vehicle: Klucel (hydroxypropylcellulose) (HPC) 91 % of control

ClCc1ccc(Cl)c(Cl)c1Cl
inactive: dose: 25.0 mg/kg/injection, schedule: Q01DX009 (ip), vehicle: saline with Tween-80 100 % of control | dose: 50.0 mg/kg/injection, schedule: Q01DX009 (ip), vehicle: saline with Tween-80 100 % of control | [7] 100 % of control

CCC(CNCCCCCC(=O)O)(C(=O)O)C(=O)O
inactive: dose: 12.5 mg/kg/injection, schedule: Q04DX002 (ip), vehicle: saline with Tween-80 90 % of control | [1] 98 % of control | [2] 94 % of control

COC(=O)C(NC(=O)C(CSC(c1ccccc1)(c1ccccc1)c1ccccc1)NC(c1ccccc1)(c1ccccc1)c1ccccc1)C(C)C (stereo not drawn)
inactive: dose: 50.0 mg/kg/injection, schedule: Q01DX009 (ip), vehicle: saline 98 % of control | [19] 92 % of control | [20] 97 % of control | [21] 89 % of control

O/N=C1\CCCCC\C1=N/O.O/N=C1\CCCCC\C1=N/O.[Pt]
inactive: dose: 3.13 mg/kg/injection, schedule: Q04DX003 (ip), vehicle: dextrose 104 % of control | dose: 6.25 mg/kg/injection, schedule: Q04DX003 (ip), vehicle: dextrose 108 % of control | dose: 12.5 mg/kg/injection, schedule: Q04DX003 (ip), vehicle: dextrose 98 % of control | dose: 25.0 mg/kg/injection, schedule: Q04DX003 (ip), vehicle: dextrose 98 % of control and 101 % of control | dose: 50.0 mg/kg/injection, schedule: Q04DX003 (ip), vehicle: dextrose 95 % of control and 106 % of control | dose: 100.0 mg/kg/injection, schedule: Q04DX003 (ip), vehicle: dextrose 103 % of control | dose: 200.0 mg/kg/injection, schedule: Q04DX003 (ip), vehicle: dextrose 96 % of control and 98 % of control

CCOC(=O)NCCCNC(=O)OCC
inactive: [19] 104 % of control | [20] 95 % of control | [21] 93 % of control

Nc1ccc(CC(=O)Nc2ccc(S(=O)(=O)F)cc2)cc1
inactive: [17] 102 % of control | [18] 103 % of control | dose: 400.0 mg/kg/injection, schedule: Q01DX001 (ip), vehicle: saline 105 % of control

O=c1[nH]c2ccccc2nc1CBr
inactive: dose: 3.75 mg/kg/injection, schedule: Q01DX009 (ip), vehicle: saline with Tween-80 98 % of control | dose: 7.5 mg/kg/injection, schedule: Q01DX009 (ip), vehicle: saline with Tween-80 110 % of control | dose: 12.5 mg/kg/injection, schedule: Q01DX009 (ip), vehicle: saline with Tween-80 113 % of control | dose: 15.0 mg/kg/injection, schedule: Q01DX009 (ip), vehicle: saline with Tween-80 104 % of control

NCCSC1(O)C(=O)c2ccccc2C1=O
inactive: dose: 37.5 mg/kg/injection, schedule: Q01DX009 (ip), vehicle: saline 109 % of control | dose: 75.0 mg/kg/injection, schedule: Q01DX009 (ip), vehicle: saline 109 % of control | dose: 150.0 mg/kg/injection, schedule: Q01DX009 (ip), vehicle: saline 89 % of control

Cc1c(Cl)c(C)c(Cl)c(O)c1Cl (tested in a mixture with another compound)
inactive: dose: 50.0 mg/kg/injection, schedule: Q01DX005 (ip), vehicle: saline with Tween-80 97 % of control | dose: 100.0 mg/kg/injection, schedule: Q01DX005 (ip), vehicle: saline with Tween-80 91 % of control

COc1cc2c(cc1OC)-c1nc(N)sc1CC2
inactive: [8] 107 % of control | [11] 98 % of control | [15] 103 % of control

CN(c1ccccc1)c1ccccc1
inactive: [6] 94 % of control | [9] 89 % of control

O=C(Nc1ccc(CCO)cc1)Nc1ccc(F)c([N+](=O)[O-])c1
inactive: [6] 98 % of control | [7] 93 % of control | [5] 101 % of control | [9] 96 % of control | [10] 94 % of control | [12] 98 % of control | [13] 92 % of control | [14] 93 % of control | [16] 102 % of control

C[CH2][Sn]([c]1ccccc1)([c]1ccccc1)[c]1ccccc1
inactive: dose: 12.5 mg/kg/injection, schedule: Q04DX003 (ip), vehicle: saline with Tween-80 97 % of control | [3] 100 % of control | [4] 94 % of control

CO[C@@]12[C@@H]3N[C@@H]3CN1C1=C(C(=O)C(N3CCOCC3)=C(C)C1=O)[C@@H]2COC(N)=O
inactive: dose: 1.5 mg/kg/injection, schedule: Q01DX001 (ip), vehicle: distilled water + Tween-80 118 % of control | dose: 3.0 mg/kg/injection, schedule: Q01DX001 (ip), vehicle: distilled water + Tween-80 123 % of control | dose: 12.0 mg/kg/injection, schedule: Q01DX001 (ip), vehicle: distilled water + Tween-80 115 % of control
